# Values quoted from earlier work, collected in patent publication US11938137B2, “Lipid prodrugs of mycophenolic acid and uses thereof” (PureTech LYT, Inc., priority 2017, dated 2024).
# Details: cited from earlier work
smiles,measurement,value
CCCCCCCCCCC(=O)O[C@H]1CC[C@H]2[C@@H]3CCC4=CC(=O)CC[C@]4(C)[C@H]3CC[C@]12C [testosterone undecanoate],bioavailability of testosterone after oral administration of the undecanoate ester,< 5%
